Measured values as given in patent publication US9913862B2, “Methods of treating gram-negative microbial infections” (TRUSTEES OF BOSTON UNIVERSITY, priority 2011, dated 2018).
Read-outs that look alike come from different tables or passages of the source.

Assays:
E. coli [1] = format: cell-based; conditions: for bactericidal activity when sublethal Ag+ is added to the antibiotic: sublethal antibiotic (0.25 μg/mL gentamicin, 0.03 μg/mL ofloxacin, 1 μg/mL ampicillin) plus 15 μM AgNO3
Experimental: Antibiotics and chemicals: All experiments presented herein were performed in Luria Bertani (LB) medium (Fisher Scientific). […] Additional chemicals that were used in the Examples include: phosphate buffer saline (PBS) (Sigma), Tris/HCl buffer pH 7.5 (Sigma), ferene-S(Fisher Scientific), 3′-p-hydroxyphenyl fluorescein dye (Invitrogen), propidium iodide (Invitrogen), and thiourea (Fluka).
Media and growth conditions: The growth and survival of untreated exponential-phase E. coli strains were compared with the antibiotic-treated strains. Briefly, cultures from frozen stock were grown overnight. The overnight culture was diluted 1:250 with 25 mL of LB medium in 250 mL flasks and incubated at 37° C., 300 rpm, and 80% humidity. Cells were then grown until an OD600 nm of 0.3. For antibiotic treatments, 500 μL samples were taken from the flasks and transferred to a 24-well plate incubated at 37° C., 900 rpms, and 80% humidity. For the hydroxyl radical (OH•) quenching experiments, thiourea (150 mM) was added simultaneously with the silver salt (e.g., AgNO3). Measurements of OD600 nm were taken using a SpectraFluor Plus (Tecan). For measuring the colony forming unit (cfu) per milliliter (mL), 100 μL of culture was collected and then serially diluted in PBS (pH 7.2). A 5 μL portion of each dilution was plated in LB-agar plates and incubated overnight at 37° C. The colonies were counted and cfu/mL was calculated using the following formula: ((number of colonies)*(dilution factor))/(amount plated).
Strains: All E. Coli experiments were performed with MG1655 (ATCC 700926)-derived strains. The knockouts were constructed using P1 phage transduction and derived from the Keio single-gene knockout collection. Removal of the kanamycin resistance cassette was accomplished using the pcp20 plasmid and confirmed by PCR prior to experimentation.

E. coli [2] = tested on: E. coli
Experimental: Transmission electron microscopy: Samples analyzed with transmission electron microscopy were prepared using the following procedure: 100 μL samples were taken, centrifuged and resuspended in 1×PBS twice. To fix the bacterial cells, the samples were centrifuged and resuspended in 1 mL of 2.5% glutaraldehyde solution in PBS for 30 min. The cells were then dehydrated by exposing them for 10 min to a series of ethanol concentration solutions (50, 60, 80, 90 and 100% ethanol/PBS solutions). The cells were finally embedded into Spurr resin and left to polymerize in an oven at 60° C. for 24 h. The polymerized samples were sectioned into slices of thickness of ˜60 nm using a microtome. The sliced samples were analyzed in a Jeol 1200EX-80 kV.

E. Coli [3] = test: Mouse peritonitis model, survival assay; format: in vivo, mice; conditions: after 5 days; i.p.; 30 mg vancomycin/kg, 6 mg AgNO3/kg (35 μM)
Experimental: (§1) Minimum lethal dose (MLD) of E. coli for peritonitis mouse model: For all animal experiments, 6-week-old C57BL6 male mice (body weight, ˜20 g) were used. Serial dilutions of E. Coli ranging from 1×10^6-1×10^9 cfu/mouse were introduced into the peritoneal cavity of the mice in 500 μL aliquots of sterile saline supplemented with 8% mucine. […] The MLD was determined to be 5×10^6 cfu/mouse by measuring the lowest concentration of E. Coli that killed 100% of the recipient mice.
Survival Assays: Male C57BL6 6-week old mice (weighing ˜20 g) received intraperitoneal injections of the MLD of E. Coli in a volume of 500 μL with 8% mucine. After 1 h, ten mice per group received either vehicle (PBS) only or infusions of the antibacterial treatments.

soxS reporter strain = conditions: 1 h, 30 μM AgNO3
Experimental: (§2) Iron misregulation superoxide production and disulfide bond formation measurements: Iron regulation and superoxide production were measured using previously constructed genetic reporter strains. A disulfide bond formation sensor was constructed based on activation of the OxyR protein, which forms a disulfide bond in the presence of H2O2. The disulfide bond formation sensor was constructed by PCR-amplifying the native dps promoter and cloning it into the BamHI and XhoI restriction sites of the pZE21 vector [33]. The forward primer for PCR was […] (SEQ ID NO: 1), and the reverse primer was […] (SEQ ID NO: 2). The data were collected using a Becton Dickinson FACSCalibur flow cytometer with a 488-nm argon laser and a 515-545 nm emission filter (FL1) at high flow rate. Calibrite beads (Becton Dickinson) were used for instrument calibration. FlowJo was used to process flow cytometric data.

Fur reporter strain = conditions: one hour of treatment; 15 and 30 μM AgNO3
Experimental: as §2

E. Coli [4] = test: Mouse peritonitis model, E. coli counts in peritoneal cavity; format: in vivo, mice; conditions: after 24 hours; single agent i.p.; 30 mg vancomycin/kg or 6 mg AgNO3/kg
Experimental: as §1
Mouse Peritonitis Model: Inbred, wildtype male C57BL/6 mice (6 weeks; ˜20 g) were used. After one week of quarantine, inoculation was performed by intraperitoneal (i.p.) injection of 500 μL of the MLD E. Coli inoculum using a 26-gauge syringe. The inoculum was delivered in suspension with 8% (w/v) mucine in sterile saline. 1 h after introduction of the inoculum, the untreated control group (t=0) was euthanized. Subsequently, antibacterial therapy was initiated by intraperitoneal injection. Ten mice per group received antibacterial treatments. At time 0 (control only), 8, 16 and 24 h, mice were euthanized. Peritoneal washes were performed by injecting 1.0 mL of sterile saline in the intraperitoneal followed by a massage of the abdomen. Subsequently, the abdomen was opened and 200 μL of peritoneal fluid (PF) was recovered from the peritoneum for analysis of E. Coli cfu/mL.

dps reporter strain = dps reporter strain (OxyR disulfide bond formation sensor); format: cell-based, E. coli; conditions: 1 h
Description: The forward primer for PCR was […] […] (SEQ ID NO: 2). […] Calibrite beads (Becton Dickinson) were used for instrument calibration. FlowJo was used to process flow cytometric data.

mice = conditions: concentrations up to 12 mg AgNO3/kg (70 μM)
E. coli [5] = format: cell-based; conditions: for ROS production when sublethal Ag+ is added to the antibiotic: sublethal antibiotic plus 15 μM AgNO3
Description: FlowJo was used to process flow cytometric data.

[6] = tested on: human cell lines (primary keratinocytes, primary hepatocytes and neurons)
E. coli [7] = conditions: ΔdsbA knockout; 1 h; 30 μM AgNO3
[8] = tested on: Fe—S clusters in E. Coli cell lysate; conditions: 30 μM AgNO3 for 1 hr
Experimental: Iron detection Ferene S colorimetric assay: The release of protein-bound iron in an E. Coli cell lysate was measured using a Ferene-S assay. The lysate was prepared by first growing 150 mL of cells to an OD600 nm of 0.7. The cells were then lysed by sonication in 20 mM Tris/HCl pH 7.2 buffer. The samples were centrifuged and the supernatants containing the cell lysates were collected. Lysates were treated either with heat (90° C. for 20 min) or with 30 μM AgNO3 (for 1 hr). 10 mM Ferene-S was added to each sample and samples were then incubated at room temperature for 1 h. Absorbance at 593 nm was then measured.

Compound: O=[N+]([O-])[O-].[Ag+] [Ag^+, silver nitrate]
- bactericidal activity against exponentially growing E. coli (E. coli [1]; 30 μM, wildtype): significant bactericidal activity
- phenotype of DsbC knockout under treatment (E. coli [1]; DsbC knockout, 30 μM AgNO3): phenotype similar to that exhibited by ΔdsbA
- reduction or inhibition of growth compared to untreated microbes (E. coli [1]; silver ions at about 30 μM, FIG. 1A): at least 30%
- sensitivity of ΔarcA strain compared to wildtype (E. coli [1]; ΔarcA knockout, 30 μM AgNO3): lower sensitivity
- sensitivity of ΔcpxA and ΔcpxR strains versus wildtype (E. coli [1]; ΔcpxA and ΔcpxR knockouts, 30 μM AgNO3): less sensitive
- sensitivity of cytochrome bd knockout (ΔcydB) versus wildtype (E. coli [1]; 30 μM AgNO3): less sensitive
- sensitivity of cytochrome bd knockout (ΔcydB) versus wildtype (E. coli [1]; 30 μM AgNO3, listed as silver nitrate): considerably less sensitivity
- sensitivity of cytochrome bo knockout (ΔcyoA) versus wildtype (E. coli [1]; ΔcyoA knockout): greater sensitivity
- sensitivity of ΔdsbA strain versus treated wildtype (E. coli [1]; ΔdsbA knockout, 30 μM AgNO3): more sensitive
- sensitivity of TCA cycle gene knockout strains versus wildtype (E. coli [1]; ΔicdA, ΔsucB, Δmdh, ΔacnB, 30 μM AgNO3): less sensitive
- phenotype of ΔiscS strain under treatment (E. coli [1]; ΔiscS knockout, 30 μM AgNO3): bacteriostatic phenotype
- susceptibility of ΔsecG strain compared to wildtype (E. coli [1]; ΔsecG knockout, 30 μM AgNO3): less susceptible
- physical changes of bacterial cells (TEM) at sublethal concentrations (E. coli [2]; 10 μM and 20 μM AgNO3): moderate morphological changes and protein aggregate formation
- physical changes of bacterial cells (TEM) (E. coli [2]; bactericidal concentrations (30 μM AgNO3)): protein aggregation and drastic morphological changes in the cell envelope
- mice survived (E. Coli [3]): 50%
- response of soxS reporter strain (superoxide production) (soxS reporter strain): induce superoxide production
- superoxide levels in ΔcydB in response to treatment (soxS reporter strain; soxS reporter in ΔcydB): lower levels of superoxide
- Fur reporter GFP fluorescence relative to untreated cells (Fur reporter strain): significantly increased fluorescence
- effect on peritoneal E. Coli cell counts (E. Coli [4]): no effect
- dps reporter GFP fluorescence on addition to H2O2 treatment (dps reporter strain; 30 μM AgNO3 added to 0.5 mM H2O2): reduced the fluorescence back to untreated levels
- toxicity in mice (mice): no effect
- HPF fluorescence (OH• production) compared to untreated cells (E. coli [5]; treated for one hour, 30 μM AgNO3, wildtype): detectable increases in fluorescence
- hydroxyl radical production in ΔarcA strain compared to wildtype (E. coli [5]; ΔarcA knockout, 1 h, 30 μM AgNO3): lower hydroxyl radical production
- hydroxyl radical production in ΔcpxA and ΔcpxR strains (E. coli [5]; ΔcpxA and ΔcpxR knockouts, 1 h, 30 μM AgNO3): lower levels of hydroxyl radical production
- OH• production in ΔiscS compared to wildtype cells (E. coli [5]; ΔiscS knockout, 1 h, 30 μM AgNO3): significantly lower OH• production
- toxicity in human cell lines [6]: no significant toxicity
- permeability (PI) of ΔdsbA strain versus treated wildtype (E. coli [7]): more permeable
- Fe+2 levels in treated lysate relative to untreated lysate [8]: higher Fe^+2 levels

Compound: OO [H2O2, reference compound]
- dps reporter GFP fluorescence relative to untreated cells (dps reporter strain; 0.5 mM H2O2 alone): significantly increased fluorescence

Compound: CC1(C)S[C@@H]2[C@H](NC(=O)[C@H](N)c3ccccc3)C(=O)N2[C@H]1C(=O)O [ampicillin, reference compound]
- bactericidal activity when sublethal Ag+ is added to the antibiotic (E. coli [1]): significantly enhanced bactericidal activity
- ROS (OH•) production from sublethal antibiotic alone (E. coli [5]; 1 h): no detectable increases in ROS production
- ROS production when sublethal Ag+ is added to the antibiotic (E. coli [5]; 1 h): dramatic increases in ROS

Compound: CN[C@H](CC(C)C)C(=O)N[C@H]1C(=O)N[C@@H](CC(N)=O)C(=O)N[C@H]2C(=O)N[C@H]3C(=O)N[C@H](C(=O)N[C@H](C(=O)O)c4cc(O)cc(O)c4-c4cc3ccc4O)[C@H](O)c3ccc(c(Cl)c3)Oc3cc2cc(c3O[C@@H]2O[C@H](CO)[C@@H](O)[C@H](O)[C@H]2O[C@H]2C[C@](C)(N)[C@H](O)[C@H](C)O2)Oc2ccc(cc2Cl)[C@H]1O [vancomycin, reference compound]
- cell death with combination relative to Ag+ or vancomycin alone (E. coli [1]; 30 μg/mL vancomycin combined with 15, 20 or 30 μM AgNO3): significantly higher levels of cell death
- growth of Gram-negative microbes (E. coli) under combination (E. coli [1]; vancomycin combined with silver nitrate, silver ions about 15 μM, FIG. 8D): reduces the growth
- mice survived (E. Coli [3]): 10%
- effect on peritoneal E. Coli cell counts (E. Coli [4]): no effect

Compound: gentamicin [reference compound]
- bactericidal activity when sublethal Ag+ is added to the antibiotic (E. coli [1]): significantly enhanced bactericidal activity
- ROS (OH•) production from sublethal antibiotic alone (E. coli [5]; 1 h): no detectable increases in ROS production
- ROS production when sublethal Ag+ is added to the antibiotic (E. coli [5]; 1 h): dramatic increases in ROS
